No end group written: not given here. *: point of attachment. αGalNAc = CC(=O)N[C@@H]1[C@@H](O)[C@@H](O)[C@@H](CO)O[C@@H]1*
How the values were obtained:
[1] = test system: E. coli SQ171 A752G/U2609C; test: Antibiotic susceptibility (growth) assay, E. coli SQ171 A752G/U2609C; assay type: cell-based, Escherichia coli; conditions: for OD600 at t = 12 h, Normalized, Average: relative to no compound, mean of 3 replicas
From the text: (§1) In addition, we also used a strain with a U2609C–A752G double mutation, which would be predicted to restore Watson–Crick base pairing, and with three hydrogen bonds could possibly make breaking the base pair harder than with the canonical two hydrogen bonds for the A–U base pair. As a control, we also tested Dro that lacks the α-D-GalNAc modification, which we predict (assuming that Dro binds analogously to Dro1) should not interact with U2609 and, therefore, not be influenced by the conformation of the U2609–A752 base pair.
(§2) Strains E. coli Keio wild-type and E. coli Keio ΔsbmA used from the Keio knockout collection (Horizon, https://horizondiscovery.com). Wild-type E. coli SQ110 (ΔrrnGADBHC(ptRNA67))[47] and SQ171 (ΔrrnGADEHBC(pKK3535, ptRNA67))[47] strains and related mutants E. coli SQ110 A2059G and E. coli SQ171 A2503G were obtained from the previous Api137 study. E. coli strains SQ171 bearing A752G, U2609C and A752G:U2609C mutations[43] and E. coli SQ171 U2609G[48] were generated previously.
(§3) The susceptibility of E. coli strains to compounds was evaluated by monitoring the bacterial growth in presence of increasing concentrations of the compound of interest. In brief, bacteria were inoculated in a total volume of 100 μl of medium contained in a well of a 96-well microplate (round bottom, with cap, sterile; Sarstedt). The medium used was either LB, as rich medium, or ATCC medium (778 Davis and Mingioli glucose minimal medium), as minimal medium. Before inoculation, bacteria were grown up to exponential phase and then inoculated into the culture mix, containing selective antibiotic if necessary, with an initial optical density at 600 nm (OD600) of 0.05. Values measured from wells containing just the medium were used as a blank. The growth in each well was monitored by measuring the OD600 every 10 minutes for a total of 20 hours at 37 °C with shaking using a plate reader (Tecan Infinite 200 PRO). The inhibition resulting from a compound’s concentration was evaluated by normalizing the OD600 at t = 12 hours (corresponding to the end of the log phase) from the treated culture to the untreated one. For each compound, the concentrations tested were 5 μM, 10 μM and 30 μM. Each single titration assay was done in triplicate with individually prepared culture mixes. For each concentration, the standard deviation was calculated, taking into account each single replica and its specific technical error from the plate reader.

[2] = test system: ribosomes at the stop codon of MLIF-UAA mRNA in the presence of RF1; test: Toeprinting assay on MLIF*-mRNA with RF1; assay type: biochemical, Escherichia coli; conditions: for Relative stop band intensity signal: 30 μM compound, MLIF*-mRNA, plotted values; for stalling of ribosomes at the stop codon: toeprinting, 30 μM peptide, 1× or 10× RF1 (trend also with ten-fold RF2)
Procedure: To ascertain which step during protein synthesis is affected by drosocin, we performed toeprinting assays, where reverse transcription is used to monitor the position of ribosomes on a defined mRNA[34].
Toeprinting reactions were performed as described previously. In brief, reactions were performed with 6 μl of PURExpress ΔRF123 in vitro protein synthesis system (NEB) in the presence of 1× RF3 and either 1× or 10× of RF1 or RF2 (relative to the manufacturer’s recommendation). The reactions were carried out on an MLIF-UAA-toeprint template (5′-[…]-3′, ORF start codon and stop codon are underlined bold), containing T7 promoter, a ribosome binding site, an MLIF-coding ORF and the NV1* primer binding site. The template is a version of the ErmBL template with a truncated ORF and addition of a isoleucine coding codon at the third position in the ORF. The template was generated by polymerase chain reaction of two overlapping 77-nt- and 78-nt-long primers. The reactions contained 30 ng of the MLIF-UAA-toeprint DNA template. The reactions were supplemented with Api137, thiostrepton or one of the drosocin derivates as specified. The transcription–translation reactions were incubated for 15 minutes at 37 °C. The reverse transcription on the MLIF-short-UAA toeprint template was carried out using AMV RT and primer NV*1-Alexa 647 (5′-[…]-3′). The transcription–translation reactions were incubated with AMV RT and NV*1-Alexa 647 for 20 minutes at 37 °C. mRNA degradation was carried out by the addition of 1 µl of 5 M NaOH. The reactions were neutralized with 0.7 µl of 25% HCl, and nucleotide removal was performed with the QIAquick Nucleotide Removal Kit (Qiagen). The samples were dried under vacuum for 2 hours at 60 °C for subsequent gel electrophoresis. The 6% acrylamide gels were scanned on a Typhoon scanner (GE Healthcare).

E. coli SQ171 U2609C = test: Antibiotic susceptibility (growth) assay, E. coli SQ171 U2609C; assay type: cell-based, Escherichia coli; conditions: relative to no compound, mean of 3 replicas
From the text: as §1, §2, §3

[3] = test system: E. coli Keio wt (BW25113); test: Antibiotic susceptibility (growth) assay, E. coli Keio wild-type; assay type: cell-based, Escherichia coli; conditions: 30 μM peptide; for Average of normalized growth: average of three biological replicates; for growth inhibition in rich medium: rich (LB) medium
From the text: Many PrAMPs use the SbmA transporter to pass through the E. coli inner membrane[4],[10],[31]; however, whether drosocin also uses SbmA remains, to our knowledge, unknown. To address this, we monitored the effect of the presence of diverse drosocin peptides (Fig. 1a,b and Supplementary Fig. 1a) on the growth of the wild-type E. coli strain BW25113 containing SbmA or lacking SbmA (ΔsbmA) (Fig. 1c,d). We compared unmodified drosocin (Dro) with various modified forms (Fig. 1a,b). The modified forms included the naturally occurring Dro1 and Dro2 that carry either a monosaccharide (α-D-GalNAc) or disaccharide (β-D-Gal(1→3)-α-D-GalNAc) attached to Thr11, respectively (Fig. 1b). In addition, we examined the previously reported[23],[24] drosocin derivatives bearing β-D-Maltosyl (Dro3), α-D-GlcNAc (Dro4), β-D-Gal (Dro5), β-D-Glc (Dro6), β-D-Lactosyl (Dro7) and β-D-Cellobiosyl (Dro8) modifications on Thr11 (Fig. 1a,b and Supplementary Fig. 1a). Finally, we also included in our analysis the synthetic unmodified drosocin derivative with proline substitutions at positions 7, 11 and 12 (Dro-3P) (Fig. 1a), which was previously reported to have similar antimicrobial activity to the monosaccharide form of drosocin[25]. Growth was monitored in both rich (LB) and minimal medium in the presence of 30 μM of each peptide and normalized with the growth in the absence of the compounds (Methods). […] We also observed no inhibition for Dro2 nor for any of the β-linked disaccharides (Dro3, Dro6 or Dro7). […] By contrast, all drosocin peptides inhibited growth of the E. coli BW25113 strain in minimal medium, albeit to different extents (Fig. 1d).
as §2, §3

E. coli SQ171 U2609G = test: Antibiotic susceptibility (growth) assay, E. coli SQ171 U2609G; assay type: cell-based, Escherichia coli; conditions: relative to no compound, mean of 3 replicas
From the text: as §1, §2, §3

| Substance | OD600 at t = 12 h, Normalized, Average ([1]; 5 μM) | OD600 at t = 12 h, Normalized, Average ([1]; 30 μM) | tolerance of double mutant relative to the wild-type strain ([1]; U2609C–A752G double mutation vs wild-type SQ171, 30 μM) | Relative stop band intensity signal ([2]; Fig 1f, RF1 (1X)) | Relative stop band intensity signal ([2]; Fig 1g, RF1 (10X)) | stalling of ribosomes at the stop codon [2] | OD600 at t = 12 h, Normalized, Average (E. coli SQ171 U2609C; 5 μM) | OD600 at t = 12 h, Normalized, Average (E. coli SQ171 U2609C; 30 μM) | Average of normalized growth ([3]; LB rich medium) | Average of normalized growth ([3]; Minimal medium) | growth inhibition in minimal medium [3] | growth inhibition in rich medium [3] | OD600 at t = 12 h, Normalized, Average (E. coli SQ171 U2609G; 5 μM) | OD600 at t = 12 h, Normalized, Average (E. coli SQ171 U2609G; 30 μM) |
| --- | --- | --- | --- | --- | --- | --- | --- | --- | --- | --- | --- | --- | --- | --- |
| Dro1: naturally occurring drosocin carrying monosaccharide α-D-GalNAc attached to Thr11 (GKPRPYSPRPT(αGalNAc)SHPRPIRV; UniProt P36193 22-40, looked up) | 70% | 25% | 2.5 fold | 0.3782 | 0.6764 | strongest stalling | 40% | 5% | 38% | 6% | highest inhibition | growth inhibition | 50% | 8% |
| Dro: unmodified drosocin, 19 amino acid proline-rich antimicrobial peptide lacking O-glycosylation (GKPRPYSPRPTSHPRPIRV; Drosocin; UniProt P36193 22-40, looked up) | 85% | 72% |  | 0.2211 | 0.4823 | good activity | 92% | 71% | 98% | 87% | lowest | inactive | 87% | 59% |
